{"source": "patent US20220125930A1", "about": "“SYSTEM AND METHOD FOR FABRICATION OF LARGE, POROUS DRUG-SILK MATERIALS USING CRYOGRANULATION” (Trustees of Tufts College, priority 2019, published 2022)", "test_system": "bioluminescent S. aureus Xen29", "test": "Kirby-Bauer disc diffusion test of antibiotic-loaded RSFPs", "type": "cell-based", "settings": "zones of inhibition on XEN29 cultures after 12 hours, vs blank RSFPs", "description": "Antimicrobial activity of tobramycin sulfate (TS), gentamicin sulfate (GS) and kanamycin sulfate (KS) encapsulated in RSFPs sized 100-500 mcm was assessed by Kirby-Bauer disc diffusion tests, performed according to methods outlined in the NCCLS Approved Standard M2-A7. A stock suspension of bioluminescent S. aureus Xen29 was prepared in sterile physiological solution and turbidity (expressed as optical density; OD) was adjusted against the McFahrland standard to match the 0.5 level. A sterilized cotton swab was immersed in the bacterial suspension, and a lawn of bacteria was applied on the Luria Bertani (LB) plates. A 10-mm biopsy punch was used to cut two circular fragments from each of the freshly infected plates, and both fragments were coated with antibiotic-loaded RSFPs by quick blotting against the pool of particles. The freshly mounted samples were inserted […] II system (Caliper life Science, America). The exposure time (1 s), excitation filter (430 nm), and emission filter with emission wavelength from 575 to 650 nm (DsRed) were set prior to detection.", "data": [{"substance": "gentamicin sulfate [GS]", "values": [{"measurement": "post-processing antimicrobial activity (antibiotic function) of cryoencapsulated antibiotics", "result": "preserved"}]}, {"substance": "tobramycin sulfate [TS]", "values": [{"measurement": "post-processing antimicrobial activity (antibiotic function) of cryoencapsulated antibiotics", "result": "preserved"}]}]}
